Data: US6579696B1, “Polymyxin B conjugates” (priority 1992, dated 2003)
≈ marks a conversion by molar mass, not a printed value. Like-named read-outs stand apart in the source and are kept apart here. Ends that are not written are not given here.

Tests used:
[1] = molecular target: Fc receptors of the human U937 monocyte/macrophage cell line (human); test: saturation binding of 125I-IgG to 2×10^5 U937 cells
[2] = molecular target: Fc receptors of the human U937 monocyte/macrophage cell line (human); test: 1×10^-8 M 125I-IgG on 2×10^5 U937 cells, no competitor
[3] = tested on: Staphylococcus epidermidis; test: MIC and MBC; format: cell-based
S. aureus = test: MIC testing against S. aureus; format: cell-based, Staph. aureus; conditions: Staphylococcus aureus
Description: 1.5 ml fractions were collected. The fractions in the void volume were pooled and sterile filtered. The activity of the conjugate was determined by standard MIC testing against S. aureus.

[4] = vancomycin after reaction with crosslinker, aqueous solution
Description: Vancomycin in phosphate buffer was reacted with each of the following compounds: sulfosuccinimidyl 6-[3-(2-pyridyldithio)propionamide]hexanoate (“sulfo-LC-SPDP”), m-maleimidobenzoyl-N-hydroxysulfosuccinimide ester (“sulfo-MBS”), sulfosuccinimidyl(4-iodoacetyl)aminobenzoate (“sulfo-SIAB”), and sulfosuccinimidyl 4-(p-maleimidophenyl)butyrate (“sulfo-SMPB”). All four crosslinking agents react with a primary amino group on the vancomycin molecule, resulting in the formation of an amide bond. […] Finally, vancomycin derivatized by sulfo-SIAB posesses an iodo group, which can also react with a sulfhydryl group on either reduced IgG or derivatized IgG, by nucleophilic substitution for the iodo group. […] The mixtures were incubated with agitation at ambient temperature.

E. coli 25922 [5] = format: cell-based; conditions: Table 42
E. coli H16 [6] = format: cell-based; conditions: Table 42
E. coli 0111:B4 [7] = tested on: E. coli 0111:B4
E. coli 25922 [8] = tested on: E. coli 25922
E. coli H16 [9] = tested on: E. coli H16
Salmonella 34576 [10] = conditions: Table 43
avidin (Sigma) [11] = molecular target: avidin (Sigma) (UniProt P02701); test: capture ELISA: PMB-Cys-Biotin on avidin-coated wells, detected with chicken anti-PMB 1/1000; maximally diluted sample of a 5-fold series from 10 ng/ml
E. coli 0111:B4 [12] = format: cell-based; design: key: −: no agglutination; +: microagglutination; +++: macroagglutination; conditions: avidin beads loaded with compound
Description: (§1) 100 ul polystyrene beads (Spherotech […], 5% w/v) were aliquoted to two 1.5 mL microcentrifuge tubes, centrifuged 1 min at 12,000 g in microcentrifuge and washed 2×with 1 ml PBS (vortexed and recentrifuged 1-2 min after each wash). The beads were resuspended in 900 ul PBS, and 100 ul of 1 mg/ml solution of avidin (Sigma) added, and the tubes rotated overnight at room temperature. The beads were pelleted, and washed sequentially as described above with 1 ml PBS, PBS+0.5% tween 20 (PBST), and PBS, and each sample resuspended in 200 ul PBS. The samples were pooled and stored at 4 degrees.
(§2) 20 ul avidin coated beads were aliquoted into 2×1.5 ml microcentrifuge tubes, and non-specifically binding sites blocked by rotating with 1 ml PBS+1% BSA for 1 hr at room temperature. […] The samples were pelleted, and washed with 1 ml PBS, repelleted and resuspended with 20 ul PBS. III Bacterial Agglutination Assays
(§3) 5 ul of each resin was added to 20 ul bacteria (1/10 dilution of a saturated overnight culture) in independant depression wells (2 wells/bacteria tested). The samples were incubated 30 min at 37 degrees, swirled, and agglutination scored. (Note that −=no agglutination, +=microagglutination and +++=macroagglutination)

E. coli HB101 [13] = format: cell-based; design: key: −: no agglutination; +: microagglutination; +++: macroagglutination; conditions: avidin beads loaded with compound
Description: as §1, §2, §3

Salmonella 34576 [14] = format: cell-based; design: key: −: no agglutination; +: microagglutination; +++: macroagglutination; conditions: avidin beads loaded with compound
Description: as §1, §2, §3

E. coli J5 = format: cell-based; design: key: −: no agglutination; +: microagglutination; +++: macroagglutination; conditions: for Agglutination by avidin beads: Table 53
Description: as §1, §2, §3
To determine if free Immunoadaptor™ compounds can also stably bind surface exposed bacterial structures, agglutination assays were performed using bacteria prebound to Immunoadaptor™ compounds. The assay was performed with J5 bacteria, since the agglutination signal (see table above) was the strongest with this strain. 40 ul avidin coated resin was blocked for 1 hr at room temperature with 1 ml PBS+1% BSA, pelleted as described above, and resuspended in 40 ul PBS. […] The following assays were performed:
Incubated 1 hr at 37 degrees in depression well, swirled and agglutination scored.
Incubated 10 min at 37 degrees then added 5 ul avidin coated beads. Incubated 1 hr at 37 degrees in depression well, swirled and agglutination scored.
Incubated 15 min at 37 degrees, pelleted cells by centrifugation, washed with 100 ul PBS (resuspended cells with micropipetter) and repelleted. Cells were resuspended in 80 ul PBS, 20 ul aliquots distributed to depression well, 5 ul avidin coated beads added, and, incubated 1 hr at 37 degrees, swirled and agglutination scored.

[15] = tested on: J5 bacteria phagocytosed by J774A.1 mouse macrophage cell line; format: cell-based; conditions: Table 57; + anti-avidin (1/1000)
[16] = molecular target: avidin and chicken anti-PMB antibody (Gallus gallus, UniProt P02701)
Description: The capture ELISA was performed as described below. […] The coating suspensions were decanted, and all wells were washed three times using PBS+0.5% Tween 20 (PBST). In order to block non-specific binding sites, 100 ul of 1% BSA (Sigma, St. Louis, Mo.) in PBS (blocking solution) was then added to each well, and the plates were incubated for 1 hr. at 37° C.
The blocking solution was decanted, and duplicate samples of 150 ul of either PMB-Cy-Biotin or PMB-Cy-Fl added to the first well of a dilution series. The initial testing concentration of the premixed conjugate was 10 ng/ml in blocking buffer (see above), followed by 5 fold dilutions in blocking buffer. This was accomplished by serially transferring 30 ul aliquots to 120 ul buffer, mixing, and repeating the dilution into a fresh well. After the final dilution, 30 ul was removed from the well such that all wells contained 120 ul final volume. A total of 2 such dilutions were performed. […] Following this incubation, the serially diluted samples were decanted, and the wells were washed six times using PBST (Phosphate-Buffered Saline with Tween). To each well, 100 ul of 1/1000 diluted chicken anti-PMB antibody or chicken preimmune, diluted in blocking buffer was added, and the plate incubated 1 hr at 37° C. The antibody solutions were decanted and the plates were washed as described above. To each well, 100 ul of 1/1000 diluted rabbit anti-chicken IgG alkaline phosphatase (Sigma) diluted in blocking buffer was added, and the plate incubated 1 hr at 37° C. The antibody solutions were decanted and the plates were washed as described above, substituting 50 nM Na2CO3, pH 9.5 for the PBST in the final wash. The plates were developed by the addition of 100 ul of a solution containing 1 mg/ml para-nitro phenyl phosphate (Sigma, St. Louis, Mo.) dissolved in 50 nM Na2CO3, 10 mM MgCl2, pH 9.5 to each well, and incubating the plates at room temperature in the dark overnight. […] Only the ELISA readings from the maximally diluted samples in each dilution series are shown.

E. coli HB101 [17] = test: MIC and MBC in broth; format: cell-based; conditions: Example 38
K. pneumoniae LPS = test: Polarization of PMB-FITC by LPS; format: binding; conditions: 50 ul of 1 mg/ml LPS; PMB-FITC 1 to 150
P. aeruginosa LPS = test: Polarization of PMB-FITC by LPS; format: binding; conditions: 50 ul of 1 mg/ml LPS; PMB-FITC 1 to 150
R. sphaeroides LPS = test: Polarization of PMB-FITC by LPS; format: binding; conditions: 50 ul of 1 mg/ml LPS; PMB-FITC 1 to 150
S. marsecens LPS = test: Polarization of PMB-FITC by LPS; format: binding; conditions: 50 ul of 1 mg/ml LPS; PMB-FITC 1 to 150
S. enteriditis LPS = test: Polarization of PMB-FITC by LPS; format: binding; conditions: 50 ul of 1 mg/ml LPS; PMB-FITC 1 to 150
S. typhimurium LPS = test: Polarization of PMB-FITC by LPS; format: binding; conditions: 50 ul of 1 mg/ml LPS; PMB-FITC 1 to 150
E. coli 011B4 LPS = format: binding; conditions: 50 ul of 1 mg/ml LPS; PMB-FITC 1 to 150
Text: (§4) The data for this example were generated on a fluorescence polarimeter (FPM-1, provided by Jolley Consulting and Research, Inc.) based on this optical configuration. The instrument and software generates output which includes vertical intensity (IV), horizontal intensity (IH), total intensity (IT) after correction of horizontal intensity by a constant (g), fluorescence polarization in millipolarization unit (mP) and lamp feed-back, a correction for lamp and photomultiplier tube variations.
(§5) Each of ten different lipopolysaccarides (LPS) were dissoved in distilled water at a concentration of 1 mg/ml.

E. coli 026B6 LPS = format: binding; conditions: 50 ul of 1 mg/ml LPS; PMB-FITC 1 to 150
Text: as §4, §5

S. flexneri LPS = format: binding; conditions: 50 ul of 1 mg/ml LPS; PMB-FITC 1 to 150
Text: as §4, §5

V. cholera LPS = format: binding; conditions: 50 ul of 1 mg/ml LPS; PMB-FITC 1 to 150
Text: as §4, §5

E. coli HB101 [18] = tested on: E. coli HB101
[19] = molecular target: polymyxin B-cysteine-maleimide-fluorescein (PMB-Cys-Mal-FL) (Bacillus polymyxa); test: fluorescence intensity of PMB-Cys-Mal-FL with antibody
[20] = molecular target: polymyxin B-cysteine-maleimide-fluorescein (PMB-Cys-Mal-FL) (Bacillus polymyxa); test: fluorescence quenching on PMB-Cys-Mal-FL coated E. coli
[21] = molecular target: polymyxin B-cysteine-maleimide-fluorescein (PMB-Cys-Mal-FL) (Bacillus polymyxa); test: quenching of PMB-Cys-Mal-FL coated on E. coli 0111:B4; antibody 1 ug/ml (without antibody: 40)
[22] = molecular target: polymyxin B-cysteine-maleimide-fluorescein (PMB-Cys-Mal-FL) (Bacillus polymyxa); test: quenching of PMB-Cys-Mal-FL coated on E. coli 0111:B4; antibody 2 ug/ml (without antibody: 40)
[23] = molecular target: polymyxin B-cysteine-maleimide-fluorescein (PMB-Cys-Mal-FL) (Bacillus polymyxa); test: fluorescence polarization, antibody 5×10^-8 M with PMB-Cys-Mal-FL 10^-7 M (free conjugate: 740)
[24] = molecular target: polymyxin B-cysteine-maleimide-fluorescein (PMB-Cys-Mal-FL) (Bacillus polymyxa); test: fluorescence polarization, antibody 5×10^-8 M with PMB-Cys-Mal-FL 10^-7 M (free conjugate: 845)
[25] = molecular target: polymyxin B-cysteine-maleimide-fluorescein (PMB-Cys-Mal-FL) (Bacillus polymyxa); test: quenching of PMB-Cys-Mal-FL coated on E. coli 0111:B4; antibody 22 ug/ml (without antibody: 40)
[26] = molecular target: polymyxin B-cysteine-maleimide-fluorescein (PMB-Cys-Mal-FL) (Bacillus polymyxa); test: fluorescence polarization, antibody 5×10^-8 M with PMB-Cys-Mal-FL 10^-7 M (free conjugate: 32.5 mP)
avidin (Sigma) [27] = molecular target: avidin (Sigma) (UniProt P02701); test: capture ELISA: PMB-Cys-FL on avidin-coated wells, detected with chicken anti-PMB 1/1000
avidin (Sigma) [28] = molecular target: avidin (Sigma) (UniProt P02701); test: capture ELISA: PMB-Cys-FL on avidin-coated wells, chicken preimmune 1/1000 (double control)
[29] = Table 40, first number of the cell

avidin (Sigma), sequence (P02701 25-152 limits assumed): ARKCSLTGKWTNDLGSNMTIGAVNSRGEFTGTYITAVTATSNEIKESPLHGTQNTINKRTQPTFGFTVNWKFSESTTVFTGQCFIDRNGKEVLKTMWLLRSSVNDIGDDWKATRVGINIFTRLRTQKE
avidin and chicken anti-PMB antibody, sequence (P02701 25-152): as the sequence (P02701 25-152 limits assumed) above

“125I-labelled human IgG (New England Nuclear) (antibody)” showed a saturating concentration [1] of 10 nM and a bound radioactivity (cpm) [2] of 12000 cpm.

CN[C@H](CC(C)C)C(=O)N[C@H]1C(=O)N[C@@H](CC(N)=O)C(=O)N[C@H]2C(=O)N[C@H]3C(=O)N[C@H](C(=O)N[C@H](C(=O)O)c4cc(O)cc(O)c4-c4cc3ccc4O)[C@H](O)c3ccc(c(Cl)c3)Oc3cc2cc(c3O[C@@H]2O[C@H](CO)[C@@H](O)[C@H](O)[C@H]2O[C@H]2C[C@](C)(N)[C@H](O)[C@H](C)O2)Oc2ccc(cc2Cl)[C@H]1O [Vanco, Vancomycin] showed an MBC [3] of 2.5 µg/mL (≈ 1.73 µM), an MIC (S. aureus) of 1 to 2 µg/mL (≈ 0.69 to 1.38 µM) and an MIC (S. aureus; read-out: MIC w/o IgG) of 1 µg/mL (≈ 0.69 µM). The Soluble [4] was “Yes”.

With “ALYKKLLKKLLKSAKKLG [C18G, ala-leu-tyr-lys-lys-leu-leu-lys-lys-leu-leu-lys-ser-ala-lys-lys-leu-gly, reference compound]” the BDA (E. coli 25922 [5]) was 1 µg/mL, the BDA (E. coli H16 [6]) was 5 to 10 µg/mL and the MIC (E. coli 0111:B4 [7]; 0111:B4) was 10 µg/mL. For the same molecule, the MIC (E. coli 25922 [8]) was 2 to 4 µg/mL, the MIC (E. coli H16 [9]) was 30 µg/mL and the MIC (Salmonella 34576 [10]) was 5 to 10 µg/mL.

“Biotinylated Cysteinyl PMB (PMB-Cys-Biotin) (peptide)” gave an absorbance at 410 nm (avidin (Sigma) [11]) of 1.25 A410.

For “Biotinylated Cysteinyl PMB [PMB-Cys-Biotin]”, the Agglutination (E. coli 0111:B4 [12]) was “−”, the Agglutination (E. coli HB101 [13]) was “+” and the Agglutination (Salmonella 34576 [14]) was “+”. The “Agglutination by avidin beads” value (E. coli J5; Chase format) was “+”, the “Agglutination by avidin beads” value (E. coli J5; Premix format) was “+” and the “Agglutination by avidin beads” value (E. coli J5; Wash + Chase format) was “+”. For the same molecule, the Agglutination (E. coli J5; avidin beads loaded with compound) was “+++”, the “% Macrophage with phagocytosed bacteria” value [15] was 21% and the Recovered bacterial colonies [15] was 74. The MIC (E. coli 0111:B4 [7]; [29]) was 1.0 µg/mL, the “ELISA absorbency at 410 nm” value ([16]; Anti-PMB test antibody, Avidin coated wells, maximally diluted sample) was 1.252 and the “ELISA absorbency at 410 nm” value ([16]; Anti-PMB, PBS coated wells) was 0.016. For the same molecule, the “ELISA absorbency at 410 nm” value ([16]; Preimmune, Avidin coated wells) was 0.014 and the “ELISA absorbency at 410 nm” value ([16]; Preimmune, PBS coated wells) was 0.019.

Molecule “Limulus antilipopolysaccharide factor [native LALF]” has an MIC (E. coli HB101 [17]) of 16 µg/mL.

With “PMB-5-Thiocabamoyl-fluorescein [PMB-FITC]” the mP (K. pneumoniae LPS) was 258.5, the mP (P. aeruginosa LPS) was 236.4 and the mP (R. sphaeroides LPS) was 224.7. The mP (S. marsecens LPS) was 262.6, the mP (S. enteriditis LPS) was 255.9 and the mP (S. typhimurium LPS) was 266.8. For the same molecule, the mP (E. coli 011B4 LPS) was 254.6, the mP (E. coli 026B6 LPS) was 70.3 and the mP (S. flexneri LPS) was 246.3. It also gave a mP (V. cholera LPS) of 174.8, an MIC (E. coli HB101 [18]; [29]) of 0.2 µg/mL and an MIC (E. coli HB101 [18]; Table 44) of 0.2 µg/mL.

With “mouse monoclonal anti-fluorescein antibody (#4-4-20)” the percent of the intensity signal quenched [19] was 95%, the fraction of fluorescein available to bind the antibody [20] was 0.67 and the FLUORESCENCE (AFU) [21] was 16 AFU. The FLUORESCENCE (AFU) [22] was 15 AFU, the IH (horizontal intensity) [23] was 25 and the IV (vertical intensity) [24] was 61. The FLUORESCENCE (AFU) [25] was 15 AFU and the mP (millipolarization) [26] was 390 mP.

Molecule “polymyxin B-cysteine-maleimide-fluorescein (PMB-Cys-Mal-FL) (peptide)” has an absorbance at 410 nm (avidin (Sigma) [27]) of 0.033 A410 and an absorbance at 410 nm (avidin (Sigma) [28]) of 0.01 A410.
